Article PMC11838736 (2025)

System: Doxorubicin aptamer (DNA, aptamer) ACCATCTGTGTAAGGGGTAAGGGGTGGT
Assay: electrochemical aptamer-based sensor, square-wave voltammetry (KDM), Hill fit
Conditions: 37 °C; in serum; apparent; immobilised aptamer; 8 devices

## COc1cccc2c1C(=O)c1c(O)c3c(c(O)c1C2=O)C[C@@](O)(C(=O)CO)C[C@@H]3O[C@H]1C[C@H](N)[C@H](O)[C@H](C)O1
  Kd: 5 µM
